We go through 1 compound from patent publication US20180263909A1, “DUAL LOADED LIPOSOMAL NANOPARTICLES” (priority 2015, published 2018).

The test system of one data set is MM.1S cells. The experiment in a line: Cytotoxicity (Cell Counting Kit-8) and Chou-Talalay synergy analysis, MM.1S. Format: cell-based. As to conditions: 25 nM of each drug, 48 h.
For the next data set, the system named is NCI-H929 cells. As to conditions: 25 nM of each drug, 48 h.

Method for MM.1S cells: (§1) Cytotoxicity and Synergy Analysis. 2×10^5 cells/well were plated in a 96-well dish 16 h prior to the experiment. Cells were treated with respective cytotoxic agents at varying concentrations. Cytotoxicity was assessed at 48 h using Cell Counting Kit-8 Reagent (Dojindo Molecular Technologies, Rockville, Mass.).
Method for NCI-H929 cells: as §1

As for `CC(C)C[C@H](NC(=O)[C@H](CCc1ccccc1)NC(=O)CN1CCOCC1)C(=O)N[C@@H](Cc1ccccc1)C(=O)N[C@@H](CC(C)C)C(=O)[C@@]1(C)CO1` [carfilzomib], the cytotoxicity entry in the data set on MM.1S cells and in the data set on NCI-H929 cells was “minimal cytotoxicity” in each case.
